Test results as given in patent publication US20030027819A1, “Beta-sheet mimetics and methods relating to the use thereof” (Molecumetics Ltd., priority 1996, published 2003).

biological target: thrombin (Bos taurus, UniProt P00735); assay: Thrombin inhibition by solid phase compounds of Tables 11-15; type: biochemical; design: 100 μl of 10 μM thrombin solution; details: mixtures of diastereomers; read-out: Ki as thrombin inhibitors (mark at Cpd. No.)
Description: Following extensive washing with DMF, the resin was treated with the acid fluoride of N-Fmoc-4-aminomethylbenzoic acid, or (81), or (86) and Hunigs' base in DMF until the Kaiser test was negative. Alternatively, the Fmoc-protected thiazole-(75) or imidazole-based (77) linkers were coupled to the resin using BOP, HOBt and DIEA. In some instances Fmoc-Leu or another amino acid was attached to the resin prior to the thiazole-(75) or imidazole-based (77) linkers via the same methodology. […] Following washing with DMF a dienoic acid was coupled to the resin-bound linkers using PyBOP, HOBt and Hunigs' base in DMF until the result of a Kaiser test was negative. The cycloaddition was performed by pretreatment of a solution of a pyrazolidinedione (not shown) or urazole in DMF with a solution of [bis(trifluoroacetoxy)iodo]benzene in DMF. […] The resin was then washed with DMF and CH2Cl2. Oxidation to the ketoamide was effected by treatment of the resin with a solution of Dess-Martin periodinane in DMSO for 60 min. […] The supernatant was collected and the resin was washed with additional TFA. The combined filtrates were concentrated in vacuo. The residue was precipitated with diethyl ether and the ether was decanted. The resulting solid was reconstituted in 1:1 CH3CN:H2O and lyophilized. […] The compounds were assayed for inhibition of coagulation enzymes as mixtures of diastereomers.

Ki, < 10 nM:
CC(C)CC1C=CC(C(=O)NC(CCCCN)C(=O)C(=O)NCCc2ccc(C(N)=O)cc2)n2c(=O)n(CCc3cccs3)c(=O)n21 (centres unmarked) [Structure 115]
CC(C)CCn1c(=O)n2n(c1=O)C(C(=O)NC(CCCCN)C(=O)C(=O)NCCc1ccc(C(N)=O)cc1)C=CC2CC(C)CC(C)(C)C (centres unmarked) [Structure 126]
CC1=CC(C(=O)NC(CCCCN)C(=O)C(=O)NCCc2ccc(C(N)=O)cc2)n2c(=O)n(CC(C)c3ccccc3)c(=O)n2C1c1ccccc1 (centres unmarked) [Structure 123]
CC(C)CC1C=CC(C(=O)NC(CCCCN)C(=O)C(=O)NCCc2ccc(C(N)=O)cc2)n2c(=O)n(C(c3ccccc3)c3ccccc3)c(=O)n21 (centres unmarked) [Structure 118]
CC(C)CC1C=CC(C(=O)NC(CCCCN)C(=O)C(=O)NCc2ccc(C(N)=O)cc2)n2c(=O)n(Cc3cccs3)c(=O)n21 (centres unmarked) [Structure 110]
CC1=CC(C(=O)NC(CCCCN)C(=O)C(=O)NCc2ccc(C(=O)NCCc3ccccc3)cc2)n2c(=O)n(Cc3cc(F)ccc3F)c(=O)n2C1 (centres unmarked) [Structure 102]
CC(C)(C)CC1C=CC(C(=O)NC(CCCCN)C(=O)C(=O)NCCc2ccc(C(N)=O)cc2)n2c(=O)n(Cc3cc(F)ccc3F)c(=O)n21 (centres unmarked) [Structure 139]
CC1=CC(C(=O)NC(CCCCN)C(=O)C(=O)NCCc2ccc(C(N)=O)cc2)n2c(=O)n(Cc3cc(F)ccc3F)c(=O)n2C1 (centres unmarked) [Structure 222]
CC(C)CC1C=CC(C(=O)NC(CCCCN)C(=O)C(=O)NCc2ccc(C(N)=O)cc2)n2c(=O)n(Cc3cccc4ccccc34)c(=O)n21 (centres unmarked) [Structure 109]
CCC=CCCC1C=CC(C(=O)NC(CCCCN)C(=O)C(=O)NCCc2ccc(C(N)=O)cc2)n2c(=O)n(C(Cc3ccccc3)c3ccccc3)c(=O)n21 (mixture of isomers) [Structure 105]
CC(C)(C)CC1C=CC(C(=O)NC(CCCCN)C(=O)C(=O)NCCc2ccc(C(N)=O)cc2)n2c(=O)n(C(Cc3ccccc3)c3ccccc3)c(=O)n21 (centres unmarked) [Structure 144]
CC1=CC(C(=O)NCC2CCC(N)CC2)n2c(=O)n(CCS(=O)(=O)c3ccccc3)c(=O)n2C1 (centres unmarked) [Structure 221-5]
CC1=CC(C(=O)NC(CCCCN)C(=O)C(=O)NCCc2ccc(C(N)=O)cc2)n2c(=O)n(Cc3cccc4ccccc34)c(=O)n2C1c1ccccc1 (centres unmarked) [Structure 125]
CC(Cn1c(=O)n2n(c1=O)C1CCCCC1=CC2C(=O)NC(CCCCN)C(=O)C(=O)NCCc1ccc(C(N)=O)cc1)c1ccccc1 (centres unmarked) [Structure 121]
NCCCCC(NC(=O)C1C=C2CCCCC2n2c(=O)n(Cc3cc(F)ccc3F)c(=O)n21)C(=O)C(=O)NCCc1ccc(C(N)=O)cc1 (centres unmarked) [Structure 120]
CC1=CC(C(=O)NC(CCCCN)C(=O)C(=O)NCCc2ccc(C(N)=O)cc2)n2c(=O)n(Cc3cc(F)ccc3F)c(=O)n2C1c1ccccc1 (centres unmarked) [Structure 122]
CC1=CC(C(=O)NC(CCCCN)C(=O)C(=O)NCc2ccc(C(=O)NCCc3ccccc3)cc2)n2c(=O)n(Cc3cc(F)ccc3F)c(=O)n2C1 (centres unmarked) [Structure 223]
CC(C)CC1C=CC(C(=O)NC(CCCCN)C(=O)C(=O)NCCc2ccc(C(N)=O)cc2)n2c(=O)n(Cc3cccs3)c(=O)n21 (centres unmarked) [Structure 116]
CC1C=CC(C(=O)NC(CCCCN)C(=O)C(=O)NCc2ccc(C(N)=O)cc2)n2c(=O)n(CCc3cccs3)c(=O)n21 (centres unmarked) [Structure 146]
CC(CC1C=CC(C(=O)NC(CCCCN)C(=O)C(=O)NCCc2ccc(C(N)=O)cc2)n2c(=O)n(Cc3cc(F)ccc3F)c(=O)n21)CC(C)(C)C (centres unmarked) [Structure 135]
COc1ccccc1-n1c(=O)n2n(c1=O)C(C(=O)NC(CCCCN)C(=O)C(=O)NCCc1ccc(C(N)=O)cc1)C=CC2CC(C)CC(C)(C)C (centres unmarked) [Structure 127]
CC1=CC(C(=O)NC(CCCNC(=N)N)C(=O)c2nc3ccccc3s2)n2c(=O)n(Cc3ccccc3)c(=O)n2C1 (centres unmarked) [Structure 211]
CC1=CC(C(=O)NC(CCCCN)C(=O)C(=O)NCCc2ccc(C(N)=O)cc2)n2c(=O)n(Cc3cccs3)c(=O)n2C1c1ccccc1 (centres unmarked) [Structure 124]
CC1=CC(C(=O)NC(CCCNC(=N)N)C(=O)c2nc3ccccc3s2)n2c(=O)n(Cc3ccccc3)c(=O)n2C1 (centres unmarked) [Structure 224]
CC(CC1C=CC(C(=O)NC(CCCCN)C(=O)C(=O)NCCc2ccc(C(N)=O)cc2)n2c(=O)n(Cc3ccccc3)c(=O)n21)CC(C)(C)C (centres unmarked) [Structure 132]
CC(C)CC1C=CC(C(=O)NC(CCCCN)C(=O)C(=O)NCCc2ccc(C(N)=O)cc2)n2c(=O)n(Cc3cc(F)ccc3F)c(=O)n21 (centres unmarked) [Structure 113]
CC(C)(C)CC1C=CC(C(=O)NC(CCCCN)C(=O)C(=O)NCCc2ccc(C(N)=O)cc2)n2c(=O)n(C(c3ccccc3)c3ccccc3)c(=O)n21 (centres unmarked) [Structure 141]
COc1ccccc1-n1c(=O)n2n(c1=O)C(C(=O)NC(CCCCN)C(=O)C(=O)NCCc1ccc(C(N)=O)cc1)C=CC2CC(C)C (centres unmarked) [Structure 114]
CC1=CC(C(=O)NC(CCCCN)C(=O)C(=O)NCCc2ccc(C(N)=O)cc2)n2c(=O)n(C(Cc3ccccc3)c3ccccc3)c(=O)n2C1 (centres unmarked) [Structure 136]
CC1=CC(C(=O)NC(CCCNC(=N)N)C(=O)c2nc3ccccc3s2)n2c(=O)n(CC(c3ccccc3)c3ccccc3)c(=O)n2C1 (centres unmarked) [Structure 215]
CC(C)CC1C=CC(C(=O)NC(CCCCN)C(=O)C(=O)NCCc2ccc(C(N)=O)cc2)n2c(=O)n(Cc3cccc4ccccc34)c(=O)n21 (centres unmarked) [Structure 117]
NCCCCC(NC(=O)C1C=C2CCCCC2n2c(=O)n(Cc3cc(F)ccc3F)c(=O)n21)C(=O)C(=O)NCCCc1ccc(C(N)=O)cc1 (centres unmarked) [Structure 226]
CC(CC1C=CC(C(=O)NC(CCCCN)C(=O)C(=O)NCCc2ccc(C(N)=O)cc2)n2c(=O)n(Cc3ccc(C(F)(F)F)c(F)c3)c(=O)n21)CC(C)(C)C (centres unmarked) [Structure 134]
CC(CC1C=CC(C(=O)NC(CCCCN)C(=O)C(=O)NCCc2ccc(C(N)=O)cc2)n2c(=O)n(CC(c3ccccc3)c3ccccc3)c(=O)n21)CC(C)(C)C (centres unmarked) [Structure 130]
CC(C)(C)CC1C=CC(C(=O)NC(CCCCN)C(=O)C(=O)NCCc2ccc(C(N)=O)cc2)n2c(=O)n(CCc3ccccc3)c(=O)n21 (centres unmarked) [Structure 142]
CCC=CCCC1C=CC(C(=O)NC(CCCCN)C(=O)C(=O)NCCc2ccc(C(N)=O)cc2)n2c(=O)n(Cc3ccc(C(F)(F)F)c(F)c3)c(=O)n21 (mixture of isomers) [Structure 104]
CC(CC1C=CC(C(=O)NC(CCCCN)C(=O)C(=O)NCCc2ccc(C(N)=O)cc2)n2c(=O)n(C(c3ccccc3)c3ccccc3)c(=O)n21)CC(C)(C)C (centres unmarked) [Structure 131]
CC1=CC(C(=O)NC(CCCCN)C(=O)C(=O)NCc2ccc(C(N)=O)cc2)N2C(=O)C(N)(Cc3ccccc3)C(=O)N2C1 (centres unmarked) [Structure 189]
CC(CC1C=CC(C(=O)NC(CCCCN)C(=O)C(=O)NCCc2ccc(C(N)=O)cc2)n2c(=O)n(Cc3ccc(C(F)(F)F)cc3)c(=O)n21)CC(C)(C)C (centres unmarked) [Structure 133]
CC1=CC(C(=O)NC(CCCCN)C(=O)C(=O)NCCc2ccc(C(N)=O)cc2)n2c(=O)n(Cc3cc(F)ccc3F)c(=O)n2C1 (centres unmarked) [Structure 100]
CC1=CC(C(=O)NC(CCCCN)C(=O)C(=O)NCCc2ccc(C(N)=O)cc2)n2c(=O)n(C(c3ccccc3)c3ccccc3)c(=O)n2C1 (centres unmarked) [Structure 138]
CCC=CCCC1C=CC(C(=O)NC(CCCCN)C(=O)C(=O)NCCc2ccc(C(N)=O)cc2)n2c(=O)n(Cc3cc(F)ccc3F)c(=O)n21 (mixture of isomers) [Structure 103]
CC(CC1C=CC(C(=O)NC(CCCCN)C(=O)C(=O)NCCc2ccc(C(N)=O)cc2)n2c(=O)n(C(Cc3ccccc3)c3ccccc3)c(=O)n21)CC(C)(C)C (centres unmarked) [Structure 129]
CCC=CCCC1C=CC(C(=O)NC(CCCCN)C(=O)C(=O)NCCc2ccc(C(N)=O)cc2)n2c(=O)n(Cc3ccccc3)c(=O)n21 (mixture of isomers) [Structure 107]
CC(C)CC1C=CC(C(=O)NC(CCCCN)C(=O)C(=O)NCCc2ccc(C(N)=O)cc2)n2c(=O)n(Cc3ccccc3)c(=O)n21 (centres unmarked) [Structure 112]
CC(C)CC1C=CC(C(=O)NC(CCCCN)C(=O)C(=O)NCc2ccc(C(N)=O)cc2)n2c(=O)n(C(c3ccccc3)c3ccccc3)c(=O)n21 (centres unmarked) [Structure 108]
CC1=CC(C(=O)NC(CCCNC(=N)N)C(=O)c2nc(C(N)=O)c[nH]2)n2c(=O)n(CC(c3ccccc3)c3ccccc3)c(=O)n2C1 (centres unmarked) [Structure 201]
CC1=CC(C(=O)NC(CCCCN)C(=O)C(=O)NCCc2ccc(C(N)=O)cc2)n2c(=O)n(CC(F)(F)F)c(=O)n2C1 (centres unmarked) [Structure 145]
CC(CC1C=CC(C(=O)NC(CCCCN)C(=O)C(=O)NCCc2ccc(C(N)=O)cc2)n2c(=O)n(-c3ccc(C(C)(C)C)cc3)c(=O)n21)CC(C)(C)C (centres unmarked) [Structure 128]
CC(C)(C)CC1C=CC(C(=O)NC(CCCCN)C(=O)C(=O)NCCc2ccc(C(N)=O)cc2)n2c(=O)n(CC(c3ccccc3)c3ccccc3)c(=O)n21 (centres unmarked) [Structure 143]
